In ChEMBL document CHEMBL1153647, “Inhibitors of human leukocyte elastase. 3.1 inhibition by tetrahydrobenzisothiazolinylmethyl aryl carboxylates” (Bioorg Med Chem Lett, 1995):

Key:
[1] = target: T1, Neutrophil elastase (Homo sapiens) (UniProt P08246)
T1 sequence (whole entry): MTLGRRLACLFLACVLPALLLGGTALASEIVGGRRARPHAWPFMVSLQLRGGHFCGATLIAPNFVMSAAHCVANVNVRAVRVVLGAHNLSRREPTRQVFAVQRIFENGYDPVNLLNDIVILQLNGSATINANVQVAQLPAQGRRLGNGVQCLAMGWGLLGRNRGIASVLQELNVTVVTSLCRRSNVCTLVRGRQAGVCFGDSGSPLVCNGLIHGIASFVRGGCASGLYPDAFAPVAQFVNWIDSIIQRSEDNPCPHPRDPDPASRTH
Description: (§1) Compound was evaluated for the inhibitory activity against Human leukocyte elastase (HLE)

[2] = target: T1, Neutrophil elastase (Homo sapiens); remark: listed apart in the source
Description: as §1

[3] = target: T2, Neutrophil elastase (Homo sapiens, UniProt P08246); experiment: Ratio of Kreact to that of Kinact was determined on human leukocyte elastase(HLE)
T2 sequence (P08246 whole entry): T1 sequence (whole entry)

[4] = target: T2, Neutrophil elastase; experiment: Observed binding affinity against Human leukocyte elastase (HLE)
[5] = target: T1, Neutrophil elastase (Homo sapiens); experiment: Compound was evaluated for the inhibitory activity against Human leukocyte elastase

| SMILES | K inact [1] | Kreact [2] | Ki [3] | Ki [4] | K inact [5] | Kreact [5] |
| --- | --- | --- | --- | --- | --- | --- |
| CC(C)c1cccc2c1C(=O)N(COC(=O)c1c(Cl)cccc1Cl)S2(=O)=O | 900000 M⁻¹ s⁻¹ | 2.7e-05 s⁻¹ | – | – | – | – |
| CCC1CCCC2=C1C(=O)N(COC(=O)c1c(Cl)cccc1Cl)S2(=O)=O (stereo not drawn) | 83000 M⁻¹ s⁻¹ | 5.8e-05 s⁻¹ | 0.7 nM | 0.708 nM | – | – |
| CC1CCCC2=C1C(=O)N(COC(=O)c1c(Cl)cccc1Cl)S2(=O)=O (stereo not drawn) | 36000 M⁻¹ s⁻¹ | 3.6e-05 s⁻¹ | 1 nM | 1 nM | – | – |
| O=C(OCN1C(=O)C2=C(CCCCC2)S1(=O)=O)c1c(Cl)cccc1Cl | – | – | 100 nM | – | – | – |
| CCc1cccc2c1C(=O)N(COC(=O)c1c(Cl)cccc1Cl)S2(=O)=O | – | – | – | 0.0708 nM | – | – |
| CC1(C)CCCC2=C1C(=O)N(COC(=O)c1c(Cl)cccc1Cl)S2(=O)=O | 18500 M⁻¹ s⁻¹ | 1.8e-05 s⁻¹ | 1 nM | – | – | – |
| O=C(OCN1C(=O)C2=C(CCCC2)S1(=O)=O)c1c(Cl)cccc1Cl | – | – | – | – | 3300 M⁻¹ s⁻¹ | 5.9e-05 s⁻¹ |
| O=C(OCN1C(=O)C2=C(CCC2)S1(=O)=O)c1c(Cl)cccc1Cl | – | – | 5 nM | – | – | – |
| O=C(OCN1C(=O)C2=C(C3CCC2C3)S1(=O)=O)c1c(Cl)cccc1Cl (stereo not drawn) | – | – | 0.8 nM | – | – | – |
| CC(C)C1CCCC2=C1C(=O)N(COC(=O)c1c(Cl)cccc1Cl)S2(=O)=O (stereo not drawn) | 10000 M⁻¹ s⁻¹ | 1e-05 s⁻¹ | 1 nM | 1 nM | – | – |
